Molecules are shown by their SMILES.

The target of one test is T1, RAR α (Homo sapiens, UniProt P10276).
T1 sequence (P10276 1-462): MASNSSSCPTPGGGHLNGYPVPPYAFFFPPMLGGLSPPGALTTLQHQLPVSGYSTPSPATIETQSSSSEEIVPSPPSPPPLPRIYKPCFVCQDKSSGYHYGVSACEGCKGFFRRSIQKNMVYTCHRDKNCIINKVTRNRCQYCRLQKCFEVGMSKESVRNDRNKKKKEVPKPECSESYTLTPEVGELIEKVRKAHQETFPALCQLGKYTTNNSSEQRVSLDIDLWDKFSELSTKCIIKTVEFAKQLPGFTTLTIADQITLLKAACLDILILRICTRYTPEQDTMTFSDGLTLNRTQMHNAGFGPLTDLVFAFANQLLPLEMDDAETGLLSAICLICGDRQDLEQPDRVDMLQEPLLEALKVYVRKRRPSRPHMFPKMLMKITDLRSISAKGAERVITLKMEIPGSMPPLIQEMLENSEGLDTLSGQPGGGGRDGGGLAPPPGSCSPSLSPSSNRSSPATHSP
Description: RAR α Kd. Particulars: Table 3. The test is classed as binding.

The target of test [1] is T2, RAR β (Homo sapiens, UniProt P10826).
T2 sequence (P10826 1-455): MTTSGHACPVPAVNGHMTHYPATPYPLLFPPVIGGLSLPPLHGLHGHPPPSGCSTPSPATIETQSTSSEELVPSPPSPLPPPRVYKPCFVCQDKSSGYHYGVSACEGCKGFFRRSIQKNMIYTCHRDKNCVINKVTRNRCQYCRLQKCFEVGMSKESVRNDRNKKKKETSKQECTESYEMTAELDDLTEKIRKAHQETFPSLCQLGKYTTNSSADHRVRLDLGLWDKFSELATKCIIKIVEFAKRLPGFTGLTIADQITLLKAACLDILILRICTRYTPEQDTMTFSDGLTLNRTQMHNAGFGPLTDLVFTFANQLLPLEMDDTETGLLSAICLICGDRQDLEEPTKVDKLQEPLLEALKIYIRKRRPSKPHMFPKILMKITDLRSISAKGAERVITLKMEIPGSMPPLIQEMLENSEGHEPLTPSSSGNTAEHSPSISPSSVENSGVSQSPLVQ
The test is described as follows: RAR β Kd. The test is classed as binding. Particulars: Table 3.

Another test addresses T3, CYP26B (P450RAI-2) (Homo sapiens, UniProt Q9NR63).
T3 construct: expressed in transfected cells; host or cells: HeLa
T3 sequence (Q9NR63 1-512): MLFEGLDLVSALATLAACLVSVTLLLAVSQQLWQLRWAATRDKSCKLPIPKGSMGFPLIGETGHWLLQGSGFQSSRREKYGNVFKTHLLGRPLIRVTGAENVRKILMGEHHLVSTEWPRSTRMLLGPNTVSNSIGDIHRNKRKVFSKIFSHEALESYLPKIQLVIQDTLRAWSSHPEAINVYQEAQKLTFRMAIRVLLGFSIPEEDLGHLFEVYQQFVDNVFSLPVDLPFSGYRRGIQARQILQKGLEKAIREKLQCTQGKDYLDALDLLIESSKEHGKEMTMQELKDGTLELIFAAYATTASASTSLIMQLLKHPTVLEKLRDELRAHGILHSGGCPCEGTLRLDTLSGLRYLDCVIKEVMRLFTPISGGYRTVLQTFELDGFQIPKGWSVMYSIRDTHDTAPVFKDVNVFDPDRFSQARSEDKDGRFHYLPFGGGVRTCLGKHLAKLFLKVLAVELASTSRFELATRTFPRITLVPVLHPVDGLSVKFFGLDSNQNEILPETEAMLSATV
The test is described as follows: Cell-based inhibition of RA metabolism in CYP26B stably transfected HeLa cells. Particulars: for IC50: Table 3, stably transfected HeLa cells, [3H]-RA, 3 hours at 37° C., read-out: CYP26B Intact cells IC50. The method, boiled down:
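Stably transfected HeLa cells (5×10^5/well) in MEM with 10% FBS and 0.05 μCi [3H]-RA, compounds at 10, 1 or 0.1 μM final, 3 h at 37° C. Retinoids extracted by modified Bligh-Dyer (methylene chloride); aqueous radioactivity counted; ID50 for 50% inhibition of RA metabolism derived from log-transformed data.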

In test [2] the target is T2, RAR β. The test is described as follows: RAR β EC50/(efficacy). The test is classed as cell-based. Conditions: Table 3.

Regarding `CN(Cc1cccc(C#Cc2ccc(/C=C/C(=O)O)cc2)c1)C1CC1` [AGN 199713], the dissociation constant Kd at RAR α and at RAR β [1] was greater than 10 µM each time. The IC50 at CYP26B (P450RAI-2) amounted to 0.6 µM. For the same compound, the “selectivity for CYP26B relative to CYP26A” value on CYP26B (P450RAI-2) (ratio of ID50 values) is reported as “at least 10 fold”. For the same compound, the “RAR β (EFFICACY)” value on RAR β [2] turned out to be 25.

Consider `CN(C1CC1)C1CCC(C)(C)c2cc(C#Cc3ccc(C(C)(C)C(=O)O)cc3)ccc21` (stereo not drawn) [AGN 198790], for which the Kd at RAR α and on RAR β [1] was greater than 10 µM in each case. The half-maximal inhibitory concentration (IC50) at CYP26B (P450RAI-2) is greater than 10 µM. Besides, the “RAR β (EFFICACY)” value at RAR β [2] was less than 5.

The record behind these values is US7468391B2, “Methods for treating retinoid responsive disorders using selective inhibitors of CYP26A and CYP26B” (Allergan, Inc., priority 2003, dated 2008).
